The target in the test is T1, IL-6R (Homo sapiens, UniProt P08887).
T1 construct: purchased Creative Biomart IL6R-584H
T1 sequence (P08887 20-355 limits assumed): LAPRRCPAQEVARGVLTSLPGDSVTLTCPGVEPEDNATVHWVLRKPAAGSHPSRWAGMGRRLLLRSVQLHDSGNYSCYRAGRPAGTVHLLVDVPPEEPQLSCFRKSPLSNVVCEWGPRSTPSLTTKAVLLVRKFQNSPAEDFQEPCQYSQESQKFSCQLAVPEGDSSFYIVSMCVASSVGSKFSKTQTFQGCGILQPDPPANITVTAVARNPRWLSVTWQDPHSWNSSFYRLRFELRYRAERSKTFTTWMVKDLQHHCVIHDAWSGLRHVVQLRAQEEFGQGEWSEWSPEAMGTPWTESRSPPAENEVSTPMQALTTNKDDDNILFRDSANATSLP
Briefly: MST binding affinity of resynthesized NNP hits to IL-6R. The method, then: Hit binding affinity to various targets were determined using Microscale Thermophoresis (MST). MST experiments were performed on a Monolith NT.115pico (NanoTemper Technologies GmbH, Munich, Germany). Measurements were performed at room temperature, in triplicate with incubation periods of 15, 30 and 45 minutes. […] Targets were labeled using Nanotemper Monolith 2nd Generation Protein Labeling Kits. RED-MALEIMIDE (Maleimide-647-dye) labeling kit was used for K-Ras and RED-NHS (NHS-647-dye) labeling kit was used for IL-6, IL-6R, TNFα and ASGPR. The buffer for the ASGPR contained 20 mM HEPES pH 7.4, 150 mM NaCl, 10 mM MgCl2, 2 mM CaCl2, 0.05% Pluronic F-127, and 1 mM DTT; for IL-6 contained 20 mM HEPES pH 7.4, 150 mM KCl, 10 mM MgCl2, and 0.1% Pluronic F-127; for the soluble IL-6 receptor 20 mM HEPES pH 7.4, 150 mM NaCl, 10 mM MgCl2, and 0.05% Tween-20; for K-Ras 20 mM HEPES pH 7.4, 150 mM NaCl, 10 mM MgCl2, 0.05% Tween-20 and 1 mM DTT; for TNFα 10 mM HEPES pH 7.4, 150 mM NaCl, 10 mM MgCl2, 0.05% Polysorbate-20. Triplicate data was analyzed using MO.AffinityAnalysis software (NanoTemper Technologies GmbH).

[1] abbreviates: MST, NNP2 library hit, target SIL-6R, one-site binding model.

Where two headings read alike, the source gives them in different places. Numbered stars: 1 amine (or outer) side, 2 acyl side, 3 side chain; on linkers, the order of the positions; unused ones are H or OH. Square brackets hold non-standard residues; d marks the D form. Peptide text beside a SMILES is read from it. * marks the point of attachment. 5FAM = O=C1OC2(c3ccc(O)cc3Oc3cc(O)ccc32)c2ccc(C(=O)*)cc21; NHCH2C6H4(4-CH2CONH2) = NC(=O)Cc1ccc(CN*)cc1; X1 = O=C(Cc1ccc(CN[*:1])cc1)[*:2]

The term Kd denotes the concentration at which binding is half-saturated.

`CC(C)C[C@H](NC(=O)[C@@H](CCCNC(=N)N)NC(=O)[C@@H](C)NC(=O)Cc1ccc(CNC(=O)[C@H](Cc2ccccc2)NC(=O)[C@@H](CCCNC(=N)N)NC(=O)[C@@H](CC(N)=O)NC(=O)Cc2ccc(CNC(=O)[C@H](Cc3ccccc3)NC(=O)[C@@H](CCCCN)NC(=O)[C@@H](C)NC(=O)Cc3ccc(CNC(=O)[C@H](CC(C)C)NC(=O)[C@@H](CCC(=O)O)NC(=O)[C@@H](CCCCN)NC(=O)Cc4ccc(CNC(=O)[C@@H](NC(=O)[C@@H](CCC(=O)O)NC(=O)[C@@H](Cc5ccccc5)NC(=O)Cc5ccc(CNC(=O)[C@H](CC(C)C)NC(=O)[C@@H](CCCNC(=N)N)NC(=O)[C@@H](CC(C)C)NC(=O)Cc6ccc(CNC(=O)[C@H](Cc7ccccc7)NC(=O)[C@@H](Cc7c[nH]c8ccccc78)NC(=O)[C@@H](CCCNC(=N)N)NC(=O)c7ccc8c(c7)C(=O)OC87c8ccc(O)cc8Oc8cc(O)ccc87)cc6)cc5)C(C)C)cc4)cc3)cc2)cc1)C(=O)NCc1ccc(CC(=O)N[C@H](Cc2c[nH]c3ccccc23)C(=O)N[C@H](CCCCN)C(=O)N[C@@H](CC(C)C)C(=O)NCc2ccc(CC(=O)N[C@H](C)C(=O)N[C@@H](C(=O)N[C@@H](CC(C)C)C(=O)NCc3ccc(CC(N)=O)cc3)C(C)C)cc2)cc1` [IL6R-87-10, Fluorescein-(D)Arg-(D)Trp-(L)Phe-PAM-(D)Leu-(D)Arg-(L)Leu-PAM-(D)Phe-(D)Glu-(L)Val-PAM-(D)Lys-(D)Glu-(L)Leu-PAM-(D)Ala-(D)Lys-(L)Phe-PAM-(D)Asn-(D)Arg-(L)Phe-PAM-(D)Ala-(D)Arg- (L)Leu-PAM-(D)Trp-(D)Lys-(L)Leu-PAM-(D)Ala-(D)Val-(L)Leu-PAM] (5FAM-[dR][dW]F[X1][dL][dR]L[X1][dF][dE]V[X1][dK][dE]L[X1][dA][dK]F[X1][dN][dR]F[X1][dA][dR]L[X1][dW][dK]L[X1][dA][dV]L-{NHCH2C6H4(4-CH2CONH2)}) returned a Kd (IL-6R, ester versus amide amino acid-PAM bond polymers, library NNP2) of 20 nM.
In the case of `CC(C)C[C@H](NC(=O)[C@@H](CCCNC(=N)N)NC(=O)[C@@H](C)NC(=O)Cc1ccc(COC(=O)[C@H](CC(C)C)NC(=O)[C@@H](CCCNC(=N)N)NC(=O)[C@@H](CCC(=O)O)NC(=O)Cc2ccc(COC(=O)[C@H](C)NC(=O)[C@@H](CCCCN)NC(=O)[C@@H](Cc3ccc(O)cc3)NC(=O)Cc3ccc(COC(=O)[C@H](C)NC(=O)[C@@H](CCCNC(=N)N)NC(=O)[C@@H](Cc4ccccc4)NC(=O)Cc4ccc(COC(=O)[C@H](Cc5ccccc5)NC(=O)[C@@H](CO)NC(=O)[C@@H](CCCNC(=N)N)NC(=O)Cc5ccc(COC(=O)[C@@H](NC(=O)[C@@H](CO)NC(=O)[C@@H](Cc6ccc(O)cc6)NC(=O)Cc6ccc(COC(=O)[C@H](Cc7ccccc7)NC(=O)[C@H](NC(=O)[C@@H](CC(N)=O)NC(=O)c7ccc8c(c7)C(=O)OC87c8ccc(O)cc8Oc8cc(O)ccc87)C(C)C)cc6)C(C)C)cc5)cc4)cc3)cc2)cc1)C(=O)OCc1ccc(CC(=O)N2CCC[C@@H]2C(=O)N[C@H](CCCNC(=N)N)C(=O)N[C@@H](C)C(=O)OCc2ccc(CC(=O)N[C@H](Cc3ccccc3)C(=O)N[C@H](CCCCN)C(=O)NCC(=O)OCc3ccc(CC(N)=O)cc3)cc2)cc1` [IL6R-93-12], the Kd (read-out: MST (microscale thermophoresis) KD (nM) [95% conf. int], IL-6R, ester versus amide amino acid-PAM bond polymers, library NNP2) was 3.7 nM.
For the molecule `CC(C)C[C@H](NC(=O)[C@@H](CCCNC(=N)N)NC(=O)[C@@H](C)NC(=O)Cc1ccc(CNC(=O)[C@H](CC(C)C)NC(=O)[C@@H](CCCNC(=N)N)NC(=O)[C@@H](CCC(=O)O)NC(=O)Cc2ccc(CNC(=O)[C@H](Cc3ccccc3)NC(=O)[C@@H](CCCCN)NC(=O)[C@@H](CCC(=O)O)NC(=O)Cc3ccc(CNC(=O)[C@H](CC(C)C)NC(=O)[C@@H](CCC(=O)O)NC(=O)[C@@H](CCCCN)NC(=O)Cc4ccc(CNC(=O)[C@H](CC(C)C)NC(=O)[C@H](NC(=O)[C@@H](CC(N)=O)NC(=O)Cc5ccc(CNC(=O)[C@H](Cc6ccccc6)NC(=O)[C@@H](CO)NC(=O)[C@@H](CCC(=O)O)NC(=O)Cc6ccc(CNC(=O)[C@H](CC(C)C)NC(=O)[C@@H](CC(C)C)NC(=O)[C@@H](Cc7ccc(O)cc7)NC(=O)c7ccc8c(c7)C(=O)OC87c8ccc(O)cc8Oc8cc(O)ccc87)cc6)cc5)[C@H](C)O)cc4)cc3)cc2)cc1)C(=O)NCc1ccc(CC(=O)N[C@H](Cc2c[nH]c3ccccc23)C(=O)N[C@H](CCCCN)C(=O)N[C@@H](CC(C)C)C(=O)NCc2ccc(CC(=O)N[C@H](Cc3ccccc3)C(=O)N[C@H](CCCCN)C(=O)NCC(=O)NCc3ccc(CC(N)=O)cc3)cc2)cc1` [IL6R-87-2] (5FAM-[dY][dL]L[X1][dE][dS]F[X1][dN][dT]L[X1][dK][dE]L[X1][dE][dK]F[X1][dE][dR]L[X1][dA][dR]L[X1][dW][dK]L[X1][dF][dK]G-{NHCH2C6H4(4-CH2CONH2)}), the Kd (read-out: KD (nM) [95% conf. int], MST, NNP2 library hit, target SIL-6R, one-site binding model) stood at 0.8 nM.
Under setting [1], `CC(C)C[C@H](NC(=O)[C@@H](CCCNC(=N)N)NC(=O)[C@@H](C)NC(=O)Cc1ccc(CNC(=O)[C@H](C)NC(=O)[C@@H](Cc2c[nH]c3ccccc23)NC(=O)[C@@H](CCC(=O)O)NC(=O)Cc2ccc(CNC(=O)[C@H](Cc3ccccc3)NC(=O)[C@@H](CCCCN)NC(=O)[C@@H](CCC(=O)O)NC(=O)Cc3ccc(CNC(=O)[C@H](CC(C)C)NC(=O)[C@@H](CCC(=O)O)NC(=O)[C@@H](CCCCN)NC(=O)Cc4ccc(CNC(=O)[C@H](CC(C)C)NC(=O)[C@H](NC(=O)[C@@H](CC(N)=O)NC(=O)Cc5ccc(CNC(=O)[C@@H](NC(=O)[C@@H](CC(N)=O)NC(=O)[C@H]6CCCN6C(=O)Cc6ccc(CNC(=O)[C@H](Cc7ccccc7)NC(=O)[C@@H](Cc7c[nH]c8ccccc78)NC(=O)[C@@H](CCCNC(=N)N)NC(=O)c7ccc8c(c7)C(=O)OC87c8ccc(O)cc8Oc8cc(O)ccc87)cc6)C(C)C)cc5)[C@H](C)O)cc4)cc3)cc2)cc1)C(=O)NCc1ccc(CC(=O)N[C@H](CCC(=O)O)C(=O)N[C@H](CCCNC(=N)N)C(=O)N[C@H](C(=O)NCc2ccc(CC(=O)N[C@H](Cc3ccccc3)C(=O)N[C@H](CCCCN)C(=O)NCC(=O)NCc3ccc(CC(N)=O)cc3)cc2)C(C)C)cc1` [IL6R-87-1, Fluorescein-(D)Arg-(D)Trp-(L)Phe-PAM-(D)Pro-(D)Asn-(L)Val-PAM-(D)Asn-(D)Thr-(L)Leu-PAM-(D)Lys-(D)Glu-(L)Leu-PAM-(D)Glu-(D)Lys-(L)Phe-PAM-(D)Glu-(D)Trp-(L)Ala-PAM-(D)Ala-(D)Arg- (L)Leu-PAM-(D)Glu-(D)Arg-(L)Val-PAM-(D)Phe-(D)Lys-Gly-PAM] (5FAM-[dR][dW]F[X1][dP][dN]V[X1][dN][dT]L[X1][dK][dE]L[X1][dE][dK]F[X1][dE][dW]A[X1][dA][dR]L[X1][dE][dR]V[X1][dF][dK]G-{NHCH2C6H4(4-CH2CONH2)}) showed an equilibrium dissociation constant (Kd) of 1.2 nM.
Under setting [1], `CC(C)C[C@H](NC(=O)[C@@H](CCCNC(=N)N)NC(=O)[C@@H](C)NC(=O)Cc1ccc(CNC(=O)[C@H](CC(C)C)NC(=O)[C@@H](CCCNC(=N)N)NC(=O)[C@@H](CCC(=O)O)NC(=O)Cc2ccc(CNC(=O)[C@@H](NC(=O)[C@@H](C)NC(=O)CNC(=O)Cc3ccc(CNC(=O)[C@@H](NC(=O)[C@@H](CCCNC(=N)N)NC(=O)[C@H]4CCCN4C(=O)Cc4ccc(CNC(=O)[C@H](CC(C)C)NC(=O)[C@H](NC(=O)[C@@H](CC(N)=O)NC(=O)Cc5ccc(CNC(=O)[C@H](CC(C)C)NC(=O)[C@@H](CCCNC(=N)N)NC(=O)[C@@H](CC(C)C)NC(=O)Cc6ccc(CNC(=O)[C@H](Cc7ccccc7)NC(=O)[C@@H](Cc7c[nH]c8ccccc78)NC(=O)[C@@H](CCCNC(=N)N)NC(=O)c7ccc8c(c7)C(=O)OC87c8ccc(O)cc8Oc8cc(O)ccc87)cc6)cc5)[C@H](C)O)cc4)C(C)C)cc3)C(C)C)cc2)cc1)C(=O)NCc1ccc(CC(=O)N2CCC[C@@H]2C(=O)N[C@H](CCCNC(=N)N)C(=O)N[C@@H](C)C(=O)NCc2ccc(CC(=O)N[C@H](Cc3ccccc3)C(=O)N[C@H](CCCNC(=N)N)C(=O)NCC(=O)NCc3ccc(CC(N)=O)cc3)cc2)cc1` [IL6R-87-5, Fluorescein-(D)Arg-(D)Trp-(L)Phe-PAM-(D)Leu-(D)Arg-(L)Leu-PAM-(D)Asn-(D)Thr-(L)Leu-PAM-(D)Pro-(D)Arg-(L)Val-PAM-Gly-(D)Ala-(L)Val-PAM-(D)Glu-(D)Arg-(L)Leu-PAM-(D)Ala-(D)Arg-(L)Leu- PAM-(D)Pro-(D)Arg-(L)Ala-PAM-(D)Phe-(D)Arg-Gly-PAM] (5FAM-[dR][dW]F[X1][dL][dR]L[X1][dN][dT]L[X1][dP][dR]V[X1]G[dA]V[X1][dE][dR]L[X1][dA][dR]L[X1][dP][dR]A[X1][dF][dR]G-{NHCH2C6H4(4-CH2CONH2)}) gave a Kd of 330 nM.

(Values after patent US20230393140A1, “BINDING ASSAYS INVOLVING A PLURALITY OF SYNTHETIC COMPOUNDS, TARGETS, AND COUNTER TARGETS” (SRI International, priority 2020, published 2023).)
